Data taken from US7521458B2, “Spiropiperidylrifamycins for the treatment of mycobacterial infections” (priority 2004, dated 2009).

How the values were obtained:
Assay type in all cases: cell-based
Conditions in all cases: concentration analysed 1 μg/ml
[1] = system: Mycobacterium tuberculosis 3 strains assayed; experiment: Method of the proportions, Table 3 entry 9
[2] = system: Mycobacterium tuberculosis 1 strain assayed; experiment: Method of the proportions, Table 3 entry 10
[3] = system: Mycobacterium tuberculosis ATCC 35822; experiment: Method of the proportions, Table 3 entry 4
[4] = system: Mycobacterium Kansasii 4 strains assayed; experiment: Method of the proportions, Table 3 entry 12
[5] = system: Mycobacterium tuberculosis ATCC 35838; experiment: Method of the proportions, Table 3 entry 3
[6] = system: Mycobacterium tuberculosis 38 strains assayed; experiment: Method of the proportions, Table 3 entry 6
[7] = system: Mycobacterium tuberculosis ATCC 35837; experiment: Method of the proportions, Table 3 entry 1
[8] = system: Mycobacterium tuberculosis 2 strains assayed; experiment: Method of the proportions, Table 3 entry 8
[9] = system: Mycobacterium tuberculosis ATCC 35820; experiment: Method of the proportions, Table 3 entry 2
[10] = system: Mycobacterium tuberculosis 8 strains assayed; experiment: Method of the proportions, Table 3 entry 7
[11] = system: Mycobacterium avium-intracellulare complex 5 strains assayed; experiment: Method of the proportions, Table 3 entry 11
[12] = system: Mycobacterium tuberculosis H37 RV; experiment: Method of the proportions, Table 3 entry 5

NNC(=O)c1cccs1 [TCH, 2-tiophene hydrazo carboxilic acid]
R (R means resistent): Sensitivity of strains (s/R) [1] | Sensitivity of strain (s/R) [2] | Sensitivity of strain (s/R) [3] | Sensitivity of strains (s/R) [4] | Sensitivity of strain (s/R) [5] | Sensitivity of strains (s/R) [6] | Sensitivity of strain (s/R) [7] | Sensitivity of strains (s/R) [8] | Sensitivity of strain (s/R) [9] | Sensitivity of strains (s/R) [10] | Sensitivity of strains (s/R) [11] | Sensitivity of strain (s/R) [12]
